Experiments:
[1] = system: normal primary NK cells, pool 3 (3 donors) (IL-2 2.5 ng/mL); experiment: drug sensitivity score (DSS) (DSS units); higher = more sensitive; extreme values may be limits of the assay; settings: 72 h
KAI3 (IL-2 2.5 ng/mL) [2] = experiment: as above; settings: 72 h
IMC-1 (IL-2 20 ng/mL) [3] = experiment: as above; settings: 72 h
NK-YS (IL-2 2.5 ng/mL) [4] = experiment: as above; settings: 72 h
NK-92 (IL-2 2.5 ng/mL) [5] = experiment: as above; settings: 72 h
KHYG-1 (IL-2 2.5 ng/mL) [6] = experiment: as above; settings: 72 h
SNK-6 (IL-2 2.5 ng/mL) [7] = experiment: as above; settings: 72 h
[8] = system: normal primary NK cells, pool 1 (3 donors), resting (IL-2 0 ng/mL); experiment: as above; settings: 72 h
NKL (IL-2 2.5 ng/mL) [9] = experiment: as above; settings: 72 h
[10] = system: normal primary NK cells, pool 2 (3 donors) (IL-2 2.5 ng/mL); experiment: as above; settings: 72 h
YT (IL-2 2.5 ng/mL) [11] = experiment: as above; settings: 72 h
DERL-7 (IL-2 2.5 ng/mL) [12] = experiment: as above; settings: 72 h
[13] = system: normal primary NK cells, pool 1 (3 donors) (IL-2 2.5 ng/mL); experiment: as above; settings: 72 h
[14] = system: normal primary NK cells, pool 3 (3 donors) (IL-2 2.5 ng/mL); experiment: percent inhibition of viability; higher = more inhibition; settings: 72 h
KAI3 (IL-2 2.5 ng/mL) [15] = experiment: as above; settings: 72 h
IMC-1 (IL-2 20 ng/mL) [16] = experiment: as above; settings: 72 h
NK-YS (IL-2 2.5 ng/mL) [17] = experiment: as above; settings: 72 h
NK-92 (IL-2 2.5 ng/mL) [18] = experiment: as above; settings: 72 h
KHYG-1 (IL-2 2.5 ng/mL) [19] = experiment: as above; settings: 72 h
SNK-6 (IL-2 2.5 ng/mL) [20] = experiment: as above; settings: 72 h
[21] = system: normal primary NK cells, pool 1 (3 donors), resting (IL-2 0 ng/mL); experiment: as above; settings: 72 h
NKL (IL-2 2.5 ng/mL) [22] = experiment: as above; settings: 72 h
[23] = system: normal primary NK cells, pool 2 (3 donors) (IL-2 2.5 ng/mL); experiment: as above; settings: 72 h
YT (IL-2 2.5 ng/mL) [24] = experiment: as above; settings: 72 h
DERL-7 (IL-2 2.5 ng/mL) [25] = experiment: as above; settings: 72 h
[26] = system: normal primary NK cells, pool 1 (3 donors) (IL-2 2.5 ng/mL); experiment: as above; settings: 72 h
[27] = system: normal NK cells expanded with K562-aAPC; experiment: drug sensitivity score (DSS) (DSS units); higher = more sensitive; extreme values may be limits of the assay; settings: 72 h; IL-2 2.5 ng/mL
Protocol: (§1)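 Drug sensitivity and resistance testing on K562-aAPC-expanded normal NK cells: 5 concentrations (10-fold steps over a 10,000-fold range), 72 h at 37 °C, viability by CellTiter-Glo normalised to DMSO and benzethonium chloride controls; DSS from the fitted curve.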

[28] = system: normal NK cells expanded with K562-aAPC; experiment: percent inhibition of viability; higher = more inhibition; settings: 72 h, IL-2 2.5 ng/mL
Protocol: as §1

C/C(=C\c1csc(C)n1)[C@@H]1C[C@@H]2O[C@]2(C)CCC[C@H](C)[C@H](O)[C@@H](C)C(=O)C(C)(C)[C@@H](O)CC(=O)O1 [Patupilone] (max concentration tested 1000 nM)
Settings | drug sensitivity score
DERL-7 (IL-2 2.5 ng/mL) [12] | 31.1
IMC-1 (IL-2 20 ng/mL) [3] | 30.1
KAI3 (IL-2 2.5 ng/mL) [2] | 16.4
KHYG-1 (IL-2 2.5 ng/mL) [6] | 21.9
NK-92 (IL-2 2.5 ng/mL) [5] | 26.2
NK-YS (IL-2 2.5 ng/mL) [4] | 17
NKL (IL-2 2.5 ng/mL) [9] | 21.7
SNK-6 (IL-2 2.5 ng/mL) [7] | 24.3
YT (IL-2 2.5 ng/mL) [11] | 24.7
[1] | 0
[8] | 0.55
[10] | 0
[13] | 0.14
[27] | 17.1

percent inhibition of viability [%]
Settings | 0.1 nM | 1 nM | 10 nM | 100 nM | 1000 nM
DERL-7 (IL-2 2.5 ng/mL) [25] | -4.98 | 5.91 | 98.8 | 99.6 | 99.2
IMC-1 (IL-2 20 ng/mL) [16] | -0.59 | 0.29 | 97 | 99.9 | 99.2
KAI3 (IL-2 2.5 ng/mL) [15] | -13.1 | -4.34 | 44.2 | 60.6 | 50.5
KHYG-1 (IL-2 2.5 ng/mL) [19] | -3.34 | -8.41 | 25.7 | 104 | 102
NK-92 (IL-2 2.5 ng/mL) [18] | -21.3 | -3.29 | 72.4 | 99.8 | 97.7
NK-YS (IL-2 2.5 ng/mL) [17] | -3.81 | -3.75 | 28.9 | 71.3 | 69.9
NKL (IL-2 2.5 ng/mL) [22] | -9.24 | -10.5 | 34.6 | 93.9 | 90.3
SNK-6 (IL-2 2.5 ng/mL) [20] | 5.42 | 5.23 | 75.5 | 72.6 | 69.5
YT (IL-2 2.5 ng/mL) [24] | -3.08 | -3.77 | 59.4 | 97.9 | 96.7
[14] | -13 | -7.53 | 0.9 | 3.45 | 6.6
[21] | -18.5 | -28.5 | 6.09 | 7.49 | 15.2
[23] | 2.42 | -5.69 | 2.84 | 6.87 | 6.04
[26] | -9.75 | -4.17 | 10.3 | 5.4 | 6.51
[28] | -5.25 | -3.64 | 53.5 | 57.1 | 55.8

CCOc1cc2ncc(C#N)c(Nc3ccc(F)c(Cl)c3)c2cc1NC(=O)/C=C/CN(C)C [Pelitinib] (max concentration tested 2500 nM)
Settings | drug sensitivity score
DERL-7 (IL-2 2.5 ng/mL) [12] | 10.7
IMC-1 (IL-2 20 ng/mL) [3] | 4.58
KAI3 (IL-2 2.5 ng/mL) [2] | 9.6
KHYG-1 (IL-2 2.5 ng/mL) [6] | 9.44
NK-92 (IL-2 2.5 ng/mL) [5] | 7.76
NK-YS (IL-2 2.5 ng/mL) [4] | 3.95
NKL (IL-2 2.5 ng/mL) [9] | 7.63
SNK-6 (IL-2 2.5 ng/mL) [7] | 16.3
YT (IL-2 2.5 ng/mL) [11] | 4.06
[1] | 8.33
[8] | 6.98
[10] | 10.1
[13] | 9.9
[27] | 10.3

percent inhibition of viability [%]
Settings | 0.25 nM | 2.5 nM | 25 nM | 250 nM | 2500 nM
DERL-7 (IL-2 2.5 ng/mL) [25] | -4.83 | -5.06 | 2.43 | 41.3 | 99.9
IMC-1 (IL-2 20 ng/mL) [16] | -0.29 | 1.94 | 3.33 | -17.4 | 99.7
KAI3 (IL-2 2.5 ng/mL) [15] | -6.96 | -4.92 | 1.78 | 40.4 | 84.1
KHYG-1 (IL-2 2.5 ng/mL) [19] | 1.04 | 0.45 | 7.11 | 25.7 | 101
NK-92 (IL-2 2.5 ng/mL) [18] | -0.1 | -2.5 | 13 | 13.8 | 98.3
NK-YS (IL-2 2.5 ng/mL) [17] | 0.78 | -5.84 | 0.53 | -1.43 | 73.7
NKL (IL-2 2.5 ng/mL) [22] | -12.4 | -7.42 | -0.44 | 15.2 | 92.2
SNK-6 (IL-2 2.5 ng/mL) [20] | 29.9 | 30.9 | 23.3 | 32.9 | 95.6
YT (IL-2 2.5 ng/mL) [24] | 4.94 | 2.25 | 8.23 | 7.75 | 51.7
[14] | -8.11 | -2.18 | 2.55 | 19.3 | 94.4
[21] | 4.48 | -8.29 | 4.76 | 14.7 | 82.3
[23] | -10.8 | 5.08 | 7.69 | 43 | 91.3
[26] | 3.39 | -4.76 | 4.88 | 39 | 94.2
[28] | -1.17 | 1.75 | 2.79 | 36.6 | 99.5

O=C(CCBr)N1CCN(C(=O)CCBr)CC1 [Pipobroman] (max concentration tested 10000 nM)
Settings | drug sensitivity score
DERL-7 (IL-2 2.5 ng/mL) [12] | 0
IMC-1 (IL-2 20 ng/mL) [3] | 0.19
KAI3 (IL-2 2.5 ng/mL) [2] | 0.46
KHYG-1 (IL-2 2.5 ng/mL) [6] | 0.42
NK-92 (IL-2 2.5 ng/mL) [5] | 1.49
NK-YS (IL-2 2.5 ng/mL) [4] | 1.85
NKL (IL-2 2.5 ng/mL) [9] | 1.54
SNK-6 (IL-2 2.5 ng/mL) [7] | 0
YT (IL-2 2.5 ng/mL) [11] | 0.07
[1] | 0.45
[8] | 6.82
[10] | 0
[13] | 0
[27] | 1.23

percent inhibition of viability [%]
Settings | 1 nM | 10 nM | 100 nM | 1000 nM | 10000 nM
DERL-7 (IL-2 2.5 ng/mL) [25] | -7.31 | -1.37 | 2 | -0.47 | -5.96
IMC-1 (IL-2 20 ng/mL) [16] | -6.08 | -8.46 | -2.84 | 4.89 | 11.6
KAI3 (IL-2 2.5 ng/mL) [15] | -6.26 | -3.77 | 3.05 | 9.16 | 13.5
KHYG-1 (IL-2 2.5 ng/mL) [19] | -9.07 | -13.9 | -7.89 | 3.77 | 13.7
NK-92 (IL-2 2.5 ng/mL) [18] | -22.2 | -18.9 | -1.01 | 4.98 | 22.7
NK-YS (IL-2 2.5 ng/mL) [17] | -6.73 | -7.25 | -3.41 | 11.6 | 20.9
NKL (IL-2 2.5 ng/mL) [22] | -27.2 | -17.8 | -14.3 | 16.6 | 15.7
SNK-6 (IL-2 2.5 ng/mL) [20] | -14.3 | -17.7 | -17.4 | -17.5 | -6.39
YT (IL-2 2.5 ng/mL) [24] | -7.45 | -10.7 | -5.22 | 0.28 | 12.2
[14] | -9.04 | -2.96 | 2.05 | 2.18 | 15.1
[21] | 2.78 | -3.45 | 22.7 | 19.1 | 26.8
[23] | -5.41 | -3.61 | 2.8 | 4.47 | 2.02
[26] | 1.85 | -2.09 | 11.8 | -0.73 | 2.49
[28] | -6.43 | -6.37 | -5.59 | 7.79 | 18.1

Source: the supplement of paper PMC5908809
